Columns and labels:
[1] = system: CD8-positive human T cells; experiment: Proliferation of CD8-positive human T cells in serum-free medium; assay type: cell-based; details: hinokitiol 0.49 or 0.0049 μM, cell count after 7 days, FIG. 4
Method: CD3 Monoclonal Antibody (Thermo Fisher Scientific, Cat No. 16-0037-85) was mixed with PBS and added to a 24-well plate. After incubating at 37° C. for 1 hour, the plate was washed 3 times with PBS. As a base medium, CTS™ OpTmizer™ T Cell Expansion (Thermo Fisher Scientific, Cat No. A104851) supplemented with CTS™ Immune Cell SR (Thermo Fisher Scientific, Cat No. A2596101), 200 mM L-glutamine (Thermo Fisher Scientific, Cat No. 25030081), P/S/Amphotericin B (Fujifilm-Wako, Cat No. 161-23181), and IL2 (PeproTech, Cat No. 200-02) was used. In the coated 24-well plates, medium groups with hinokitiol added as shown in Table 3 were prepared, and CD8+ T cells (LONZA, Cat No. 2W-300) were cultured in each respective group. A cell count was performed after 7 days, and the proliferation rate was calculated.

HEK293 cells = experiment: Proliferation of HEK293 cells in suspension culture system; assay type: cell-based, human; details: hinokitiol 500 nM in Basal 10 or in-house medium, 20 days, FIG. 3
Method: As HEK293, Viral Production Cells 2.0 (Thermo Fisher Scientific: A49784), which is a clonal cell line derived from the HEK293 cell line, was used. The HEK293 cell line is widely known as a cell line derived from human embryonic kidney.
Using a 125 mL Erlenmeyer flask (VIOLAMO, SEF125V), Viral Production Cells 2.0, a clonal cell line derived from the HEK293 cell line, were seeded into 30 ml of Viral Production Medium (Thermo Fisher Scientific: A4817901) supplemented with GlutaMAX™ Supplement (Thermo Fisher Scientific, Cat No. 35050061) to a final concentration of 4 mM.
The cells were cultured with agitation in an incubator set at 37° C. and 8% CO2, and were subcultured twice. Thereafter, the cells were subcultured and cultured in a medium based on 30 mL of Basal 10 (Ajinomoto Healthy Supply, Co., Inc., CELLIST™ Basal media BASAL10) or an in-house medium supplemented with hinokitiol to a final concentration of 500 nM. The process of measuring the viable cell count every 3 or 4 days using a Vi-CELL BLU Cell Viability Analyzer (Beckman Coulter) before subculturing was repeated, and the cells were cultured for a total of 20 days.

[2] = system: porcine subcutaneous preadipocytes (PSPA); experiment: Proliferation of porcine subcutaneous preadipocytes (PSPA) in serum-free medium; assay type: cell-based; details: hinokitiol 0.25 or 0.5 μM + FeSO4•7H2O 1 μM, serum-free medium (transferrin-free); 4 days; FIG. 2
Method: As the porcine subcutaneous preadipocytes (PSPA), an adipose precursor cell line derived from porcine fetal subcutaneous tissue, described in Nakajima, et al. Biochem Biophys Res Commun. 2003 Sep. 26; 309(3): 702-8, was obtained from RIKEN RCB and used. The porcine subcutaneous preadipocytes (PSPA) from (2-1) were cultured using a serum medium. As the serum medium, a medium was used in which DMEM (Gibco, Cat No. 10313-021) was supplemented with 10% FBS (Thermo Fisher Scientific, Cat No. 10270106), 1% GlutaMAX™ Supplement (Thermo Fisher Scientific, Cat No. 35050061), and 1% Penicillin-Streptomycin (Nacalai Tesque, Cat No. 09367-34). As the serum-free medium, a medium based on the aforementioned E8 medium was used. PSPA were seeded into a 12-well plate at a density of 10,000 cells/cm^2, and the cells were subcultured into a serum medium, a transferrin-containing serum-free medium, or a hinokitiol- and iron-containing serum-free medium (transferrin-free), with medium exchange performed every other day. Cell counting was performed 4 days after the start of culturing, and the fold increase in cell number was calculated.

bovine muscle stem cells = experiment: Proliferation of bovine muscle stem cells in serum-free medium; assay type: cell-based; details: FIG. 1
Excerpt: Muscle tissue was collected from edible bovine shank meat, and CD56-positive cells were isolated using a Magnetic-Activated Cell Sorting (MACS) system to obtain bovine muscle stem cells. The bovine muscle stem cells obtained in (1-1) were suspended in a serum medium. As the serum medium, a medium was used in which Advanced DMEM (Thermo Fisher Scientific, Cat No. 12491015) was supplemented with 20% FBS (Thermo Fisher Scientific, Cat No. 10270106), 10% horse serum (Thermo Fisher Scientific, Cat No. 16050-130), and 1% GlutaMAX™ Supplement (Thermo Fisher Scientific, Cat No. 35050061). The cell suspension was seeded into a 12-well plate (BD FALCON, Cat #353046) coated with 1 μg/cm^2 fibronectin (Corning, Cat #F2006) at a cell density of 25,000 cells/0.2 mL, and the medium was changed every other day. On the fourth day of culture, the cells were subcultured into a hinokitiol-containing serum-free medium, a hinokitiol- and iron-containing serum-free medium, an iron-containing serum-free medium, a transferrin- and iron-containing serum-free medium, a transferrin-containing serum-free medium, or a serum-free medium not containing hinokitiol and transferrin, and the medium was changed every other day. […] Cell counting and subculturing were performed every 4 days, and the growth rate for two consecutive passages from day 4 to day 12 was calculated.

## CC(C)c1cccc(=O)c(O)c1 [hinokitiol]
[1]
  cell proliferation (fold increase, proliferation rate): cell proliferation-promoting effect
HEK293 cells
  cell proliferation (viable cell count): cell proliferation-promoting effect
[2]
  cell proliferation (fold increase in cell number): cell proliferation-promoting effect
Bovine muscle stem cells; hinokitiol 0.03 or 0.30 μM + FeSO4•7H2O 1.0 or 10.1 μM, serum-free medium, in some cases
  cell proliferation-promoting effect on enhancing the iron concentration: further improved
Bovine muscle stem cells; hinokitiol 0.03 or 0.30 μM in E8-based serum-free medium, transferrin-free, day 4 to day 12
  cell proliferation (fold increase, growth rate for two consecutive passages): cell proliferation-promoting effect

Source: patent US20260218130A1, “METHOD FOR CULTURING ANIMAL CELLS” (Ajinomoto Co., Inc., priority 2023, published 2026)
